Laboratory results taken from patent US10221163B2 (priority 2015, dated 2019).
Like-named read-outs stand apart in the source and are kept apart here.

What was measured:
[1] = system: Pseudomonas aeruginosa efflux+ (MB9798), IMP-1; type: cell-based; details: concentration restoring susceptibility to imipenem at 2 μg/mL in the presence of a class A, C, D serine β-lactamase inhibitor closely related to relebactam
Procedure, shortened: (§1)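 Steps: add fixed imipenem and/or ceftazidime (usually CLSI breakpoint) and fixed AmpC-directed class A/C inhibitor to microbroth MIC wells; titrate MBL inhibitor; record concentration regaining susceptibility for each PAO1-derived strain; divide efflux+ by efflux− value.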

[2] = system: Klebsiella pneumoniae expressing VIM-1 (IHMA599644); type: cell-based; details: for Klebsiella pneumoniae expressing VIM-1 (IHMA599644) MITC95: with imipenem 1 μg/ml, 95% inhibition of bacterial growth; for Klebsiella pneumoniae MITC95: VIM-1 strain IHMA599644, with imipenem 1 μg/ml, 95% inhibition of growth
Procedure, shortened: (§2)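 Imipenem 1 μg/ml + inhibitor; MBL-expressing clinical strains in 1.1×CAMHB, inoculum from saline suspension diluted 1:100; 35° C, 22–24 h; absorbance read-out.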

[3] = system: Escherichia coli expressing NDM-1 (CLB30005, CLB30016); type: cell-based; details: with imipenem 1 μg/ml; for Escherichia coli expressing NDM-1 (CLB30016) MITC95: 95% inhibition of bacterial growth; for Escherichia coli MITC95: NDM-1 strain, 95% inhibition of growth
Procedure, shortened: as §2

[4] = system: Serratia marcescens expressing IMP-1 (CL5741); type: cell-based; details: for Serratia marcescens expressing IMP-1 (CL5741) MITC95: with imipenem 1 μg/ml, 95% inhibition of bacterial growth; for Serratia marcescens MITC95: IMP-1 strain CL5741, with imipenem 1 μg/ml, 95% inhibition of growth
Procedure, shortened: as §2

[5] = system: Pseudomonas aeruginosa MB9798 vs MB9799; details: ratio MITC95 PA_9798/MITC95 PA_9799
Procedure, shortened: as §1

[6] = system: Pseudomonas aeruginosa efflux− (MB9799), IMP-1; type: cell-based; details: concentration restoring susceptibility to imipenem at 2 μg/mL in the presence of a class A, C, D serine β-lactamase inhibitor closely related to relebactam
Procedure, shortened: as §1

IMP-1 = IMP-1 (Serratia marcescens, UniProt P52699); assay: biochemical; type: biochemical; details: fluorescence assay, CCF2-FA substrate, 2 pM enzyme, 2 hours at 25° C.; read-out: IMP-1 IC50
Procedure, shortened: (§3)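 IC50 values derive from 4-parameter fits of percent inhibition against inhibitor concentration on semi-log axes. Activity was monitored by fluorescence with the CCF2-FA substrate after a 2-hour, 25° C incubation of compound, enzyme and substrate.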

NDM-1 = NDM-1 (Klebsiella pneumoniae, UniProt C7C422); assay: biochemical; type: biochemical; details: fluorescence assay, CCF2-FA substrate, 1 pM enzyme, 2 hours at 25° C.; read-out: NDM-1 IC50
Procedure, shortened: as §3

VIM-1 = VIM-1 (Pseudomonas aeruginosa (strain ATCC 15692 / DSM 22644 / CIP 104116 / JCM 14847 / LMG 12228 / 1C / PRS 101 / PAO1), UniProt A0A0F7KYQ8); assay: biochemical; details: CCF2-FA substrate, 30 pM enzyme, 2 hours at 25° C.
Procedure, shortened: as §3

[7] = fluorescence assay, read-out: VIM-1 IC50

NDM-1, sequence (C7C422 whole entry, looked up, species assumed): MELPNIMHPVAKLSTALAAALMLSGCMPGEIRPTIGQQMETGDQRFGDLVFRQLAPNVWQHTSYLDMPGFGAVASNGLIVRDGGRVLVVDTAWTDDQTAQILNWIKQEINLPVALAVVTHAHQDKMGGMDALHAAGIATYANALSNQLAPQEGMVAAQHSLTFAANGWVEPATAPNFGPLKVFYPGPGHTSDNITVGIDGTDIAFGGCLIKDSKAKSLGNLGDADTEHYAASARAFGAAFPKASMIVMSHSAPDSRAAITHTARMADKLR
IMP-1, sequence (P52699 whole entry, looked up, species assumed): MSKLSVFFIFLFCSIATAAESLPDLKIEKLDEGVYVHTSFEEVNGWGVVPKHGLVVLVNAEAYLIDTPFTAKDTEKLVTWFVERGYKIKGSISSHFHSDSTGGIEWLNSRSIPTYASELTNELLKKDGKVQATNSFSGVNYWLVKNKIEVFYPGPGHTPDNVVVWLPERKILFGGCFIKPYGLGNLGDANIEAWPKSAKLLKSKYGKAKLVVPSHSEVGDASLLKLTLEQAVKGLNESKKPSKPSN

Row | Structure (SMILES) | P. aeruginosa expressing IMP-1, efflux + (MB9798) MITC95 [1] [µM] | Klebsiella pneumoniae expressing VIM-1 (IHMA599644) MITC95 [2] [µM] | Escherichia coli expressing NDM-1 (CLB30016) MITC95 [3] [µM] | Serratia marcescens expressing IMP-1 (CL5741) MITC95 [4] [µM] | Efflux ratio [5] | P. aeruginosa expressing IMP-1, efflux − (MB9799) MITC95 [6] [µM] | IC50 (IMP-1) [nM] | IC50 (NDM-1) [nM] | IC50 (VIM-1; [7]) [nM] | Klebsiella pneumoniae MITC95 [2] [µM] | Escherichia coli MITC95 [3] [µM] | Serratia marcescens MITC95 [4] [µM] | IC50 (VIM-1; VIM-1 IC50, fluorescence assay) [nM]
1 | Nc1nc2c(-c3ccc(S(=O)(=O)NCC4(N)CCOCC4)c(S(N)(=O)=O)c3-c3nnn[nH]3)cccc2s1.O=CO [Example 115, 4-((4-(2-aminobenzo[d]thiazol-4-yl)-2-sulfamoyl-3-(1H-tetrazol-5-yl)phenylsulfonamido)methyl)tetrahydro-2H-pyran-4-aminium formate] | 3.125 | 6.25 | 3.125 | 3.125 | 1.00 | 3.125 | 0.324 | 0.0602 | 0.388 | – | – | – | –
2 | CC(CN1CCOCC1)NS(=O)(=O)c1ccc(-c2cccc3sc(N)nc23)c(-c2nnn[nH]2)c1S(N)(=O)=O (stereo not drawn) [Example 51, 4-(2-amino-1,3-benzothiazol-4-yl)-N1-(1-methyl-2-morpholin-4-ylethyl)-3-(1H-tetrazol-5-yl)benzene-1,2-disulfonamide] | 25 | 25 | 25 | 12.5 | 4.00 | 6.25 | 0.393 | 0.097 | 0.441 | – | – | – | –
3 | C[C@H](N)CNS(=O)(=O)c1ccc(-c2cccc3[nH]c(N)nc23)c(-c2nn[nH]n2)c1S(N)(=O)=O [Example 184, 4-(2-amino-1H-benzo[d]imidazol-4-yl)-N1-((S)-2-aminopropyl)-3-(2H-tetrazol-5-yl)benzene-1,2-disulfonamide] | 0.7813 | 0.7813 | 0.3906 | 0.7813 | 1.00 | 0.7813 | 0.673 | 0.0347 | 0.189 | – | – | – | –
4 | N[C@H]1CNC[C@H]1NS(=O)(=O)c1ccc(-c2cnc3cc[nH]c3c2)c(-c2nn[nH]n2)c1S(N)(=O)=O [Example 320] | 1.563 | – | – | – | 2.00 | 0.7813 | 1.21 | 0.0902 | – | 3.125 | 0.7813 | 0.7813 | 0.296
5 | Nc1nc(-c2cccc(-c3ccc(S(=O)(=O)N[C@H]4CCNC4)c(S(N)(=O)=O)c3-c3nn[nH]n3)c2)c[nH]1 [Example 294, (S)-3′-(2-amino-1H-imidazol-4-yl)-N4-(pyrrolidin-3-yl)-2-(2H-tetrazol-5-yl)-[1,1′-biphenyl]-3,4-disulfonamide] | 1.563 | – | – | – | 2.00 | 0.7813 | 1.72 | 0.197 | – | 1.563 | 0.3906 | 0.7813 | 0.742
6 | NCCNS(=O)(=O)c1ccc(-c2cccc3[nH]c([C@H](N)CN)nc23)c(-c2nn[nH]n2)c1S(N)(=O)=O [Example 335, (R)—N1-(2-aminoethyl)-4-(2-(1,2-diaminoethyl)-1H-benzo[d]imidazole-4-yl)-3-(2H-tetrazol-5-yl)benzene-1,2-disulfonamide] | 3.125 | – | – | – | 2.00 | 1.563 | 4.78 | 0.459 | 0.287 | 3.125 | 1.563 | 3.125 | –
7 | NCCNS(=O)(=O)c1ccc(-c2cccc3[nH]cnc23)c(-c2nn[nH]n2)c1S(N)(=O)=O [Example 199, N^1-(2-aminoethyl)-4-(1H-benzo[d]imidazol-4-yl)-3-(2H-tetrazol-5-yl)benzene-1,2-disulfonamide] | 0.7813 | 2.865 | 1.042 | 1.042 | 0.55 | 1.432 | 0.102 | 0.0257 | 0.0471 | – | – | – | –
8 | Cn1c(N)nc2c(-c3ccc(S(=O)(=O)N[C@H]4CCNC4)c(S(N)(=O)=O)c3-c3nn[nH]n3)cccc21 [Example 163, 4-(2-amino-1-methyl-1H-benzo[d]imidazol-4-yl)-N^1-((S)-pyrrolidin-3-yl)-3-(2H-tetrazol-5-yl)benzene-1,2-disulfonamide] | 0.7813 | 0.7813 | 0.3906 | 0.7813 | 1.00 | 0.7813 | 0.45 | 0.0605 | 0.118 | – | – | – | –
9 | NCCNS(=O)(=O)c1ccc(-c2cccc3[nH]c([C@@H](N)CN)nc23)c(-c2nn[nH]n2)c1S(N)(=O)=O [Example 336, (S)—N1-(2-aminoethyl)-4-(2-(1,2-diaminoethyl)-1H-benzo[d]imidazol-4-yl)-3-(2H-tetrazol-5-yl)benzene-1,2-disulfonamide] | 3.125 | – | – | – | 2.00 | 1.563 | 2.9 | 0.325 | 0.233 | 3.125 | 1.563 | 3.125 | –
10 | Nc1nc2c(-c3ccc(S(=O)(=O)NCCC4CNC4)c(S(N)(=O)=O)c3-c3nnn[nH]3)cccc2s1 [Example 30, 4-(2-amino-1,3-benzothiazol-4-yl)-N1-(2-azetidin-3-ylethyl)-3-(1H-tetrazol-5-yl)benzene-1,2-disulfonamide] | 1.563 | 6.25 | 6.25 | 3.125 | 1.00 | 1.563 | 0.369 | 0.0686 | – | – | – | – | 0.308
